Assays:
serotonin uptake = details: words, cited from earlier work
5HT1A = target: T1, 5HT1A (Rattus norvegicus, UniProt P19327); assay: Inhibition of 3H-8-hydroxy-2-(di-n-propylamino)tetralin binding to 5HT1A receptor; parameters: species or system male Sprague-Dawley); details: rat brain membranes, 25° C., 30 min, pH 7.4
T1 construct: brain tissues from male Sprague-Dawley rats was homogenized; from tissue; host or cells: brain of male Sprague-Dawley rats, crude synaptosomal membranes
T1 sequence (P19327 1-422): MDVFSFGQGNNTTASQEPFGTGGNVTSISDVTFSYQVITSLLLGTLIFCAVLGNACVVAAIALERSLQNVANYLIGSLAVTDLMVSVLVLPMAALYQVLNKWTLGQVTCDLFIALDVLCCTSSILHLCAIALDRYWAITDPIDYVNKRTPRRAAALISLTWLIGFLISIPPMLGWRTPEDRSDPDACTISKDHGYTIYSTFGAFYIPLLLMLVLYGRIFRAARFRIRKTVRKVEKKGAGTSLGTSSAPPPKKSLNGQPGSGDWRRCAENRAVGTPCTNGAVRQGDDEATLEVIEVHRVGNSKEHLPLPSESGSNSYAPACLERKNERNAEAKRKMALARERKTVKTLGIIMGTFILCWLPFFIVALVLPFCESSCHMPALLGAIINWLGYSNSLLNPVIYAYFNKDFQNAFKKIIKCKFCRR
Protocol: (§1) This general procedure is set forth by Wong et al., Life Sciences, 46, 231 (1990).
(§2) Bovine choroid plexus and brain tissues from male Sprague-Dawley rats was homogenized in 9 volumes of 0.32 M sucrose. After centrifugation at 1000×g for 10 minutes and then at 17,000×g for 20 minutes, a crude synaptosomal fraction was sedimented. The pellet was suspended in 100 volumes of 50 mM Tris-HCI, pH 7.4, incubated at 37° C. for 10 minutes, and centrifuged at 50,000×g for 10 minutes. The process was repeated, and the final pellet of membrane was suspended in ice-chilled 50 mM Tris-HCI buffer, pH 7.4.
(§3) Binding of ^3 H-mesulergine to the 5HT1C receptor and other serotonergic ^3 H-ligands to subtypes of 5HT receptors (^3 H-8-hydroxy-2-(di-n-propylamino)tetralin to 5HT1A; ^3 H-serotonin to 5HT1B and 5HT1D; ^3 H-ketanserin to 5HT2; and ^3 H-1-methyl-N-(8-methyl-8-azabicyclo[3.2.1]oct-3-yl)-1H-indazaole-3-carboxamide to 5HT3 receptors) was performed according to the method described in the above reference. Briefly, membranes isolated from bovine choroid plexus (for 5HT1C) or rat brain were incubated at 25° C. for 30 minutes in 2 ml of 50 mM Tris-HCl, pH 7.4; 10 mM pargyline, 0.6 mM ascorbic acid; 5 mM CaCl2; and 2 nM ^3 H-mesulergine or other tritiated ligand. […] Radioactivity was measured with a liquid scintillation spectrometer. […]

5HT1B = target: T2, 5HT1B (Rattus norvegicus, UniProt P28564); assay: Inhibition of 3H-serotonin binding to 5HT1B receptor; parameters: species or system male Sprague-Dawley); details: rat brain membranes, 25° C., 30 min, pH 7.4
T2 construct: brain tissues from male Sprague-Dawley rats was homogenized; from tissue; host or cells: brain of male Sprague-Dawley rats, crude synaptosomal membranes
Protocol: as §1, §2, §3

5HT1C receptor = target: T3, 5HT1C receptor (Bos taurus, UniProt A0AAA9SBU1); assay: Inhibition of 3H-mesulergine binding to 5HT1C receptor; details: read-out: Inhibition of Radioligand Binding to 5HT Receptor, 1C (IC50); bovine choroid plexus membranes, 2 nM 3H-mesulergine, 25° C., 30 min, pH 7.4; mean of three experiments
T3 sequence (A0AAA9SBU1 33-457): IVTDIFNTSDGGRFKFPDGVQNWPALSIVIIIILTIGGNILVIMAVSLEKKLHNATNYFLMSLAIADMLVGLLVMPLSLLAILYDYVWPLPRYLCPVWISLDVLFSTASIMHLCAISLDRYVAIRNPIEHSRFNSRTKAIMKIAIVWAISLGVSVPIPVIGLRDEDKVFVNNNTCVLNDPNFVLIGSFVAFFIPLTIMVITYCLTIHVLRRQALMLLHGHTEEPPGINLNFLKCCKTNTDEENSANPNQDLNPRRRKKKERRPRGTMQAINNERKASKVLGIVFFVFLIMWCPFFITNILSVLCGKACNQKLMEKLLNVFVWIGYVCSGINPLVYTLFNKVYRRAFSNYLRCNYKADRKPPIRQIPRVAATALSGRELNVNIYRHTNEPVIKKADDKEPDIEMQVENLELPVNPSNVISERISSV
Protocol: as §1, §2, §3

5HT1D = assay: Inhibition of 3H-serotonin binding to 5HT1D receptor; parameters: species or system male Sprague-Dawley); details: read-out: Inhibition of Radioligand Binding to 5HT Receptor, 1D (IC50), rat brain membranes, 25° C., 30 min, pH 7.4
Protocol: as §1, §2, §3

5HT3 receptors = target: T4, 5HT3 receptors (Rattus norvegicus, UniProt P35563); assay: Inhibition of 3H-1-methyl-N-(8-methyl-8-azabicyclo[3.2.1]oct-3-yl)-1H-indazaole-3-carboxamide binding to 5HT3 receptors; parameters: species or system male Sprague-Dawley); details: rat brain membranes, 25° C., 30 min, pH 7.4
T4 construct: brain tissues from male Sprague-Dawley rats was homogenized; from tissue; host or cells: brain of male Sprague-Dawley rats, crude synaptosomal membranes
T4 sequence (P35563 24-483): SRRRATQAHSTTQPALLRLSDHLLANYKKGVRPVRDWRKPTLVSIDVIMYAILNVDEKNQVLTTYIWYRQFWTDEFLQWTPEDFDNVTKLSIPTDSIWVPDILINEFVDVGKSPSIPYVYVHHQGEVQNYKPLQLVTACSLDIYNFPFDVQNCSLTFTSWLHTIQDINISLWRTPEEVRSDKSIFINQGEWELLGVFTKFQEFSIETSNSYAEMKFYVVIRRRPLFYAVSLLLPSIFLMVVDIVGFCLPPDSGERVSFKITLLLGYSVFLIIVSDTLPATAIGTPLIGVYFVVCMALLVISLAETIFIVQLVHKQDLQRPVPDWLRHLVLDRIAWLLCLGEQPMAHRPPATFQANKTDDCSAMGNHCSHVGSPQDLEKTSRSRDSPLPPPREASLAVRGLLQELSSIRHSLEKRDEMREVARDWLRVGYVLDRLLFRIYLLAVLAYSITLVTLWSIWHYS
Protocol: as §1, §2, §3

[1] = test system: metabolism of concurrently administered drugs such as barbiturates or tricyclic antidepressants
[2] = Toxicity and therapeutic index (statements in words)

T2 sequence (P28564 whole entry): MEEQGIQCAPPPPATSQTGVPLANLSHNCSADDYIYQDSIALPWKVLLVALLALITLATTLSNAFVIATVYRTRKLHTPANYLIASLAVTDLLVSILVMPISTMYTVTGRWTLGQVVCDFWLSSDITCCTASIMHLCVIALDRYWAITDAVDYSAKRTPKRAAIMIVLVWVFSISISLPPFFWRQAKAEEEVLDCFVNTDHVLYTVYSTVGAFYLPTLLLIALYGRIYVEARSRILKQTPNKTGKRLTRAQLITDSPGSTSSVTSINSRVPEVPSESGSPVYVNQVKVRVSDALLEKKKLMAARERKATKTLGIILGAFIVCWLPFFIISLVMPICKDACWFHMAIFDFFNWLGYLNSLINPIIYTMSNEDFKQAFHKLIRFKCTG

For `NCC[C@H](Oc1ccc(C(F)(F)F)cc1)c1ccccc1` [(S)-norfluoxetine], the “activity as serotonin uptake inhibitor” value (serotonin uptake; relative to (R)-antipode, from copending application Ser. No. 07/486,478) is listed as “substantially more active than its (R)-antipode”.

In the case of `NCC[C@@H](Oc1ccc(C(F)(F)F)cc1)c1ccccc1` [(R)-Norfluoxetine], the IC50 (5HT1A) is reported as 22 µM, the IC50 (5HT1B) is reported as 24 µM and the IC50 (5HT1C receptor) is reported as 0.47 µM. For the same molecule, the IC50 (5HT1D) was 101 µM, the IC50 (5HT3 receptors) was 12 µM and the “effect on metabolism of concurrently administered drugs” value [1] was “little effect on metabolism of concurrently administered drugs”. The toxicity [2] was “relatively non-toxic”.

For `NCCC(Oc1ccc(C(F)(F)F)cc1)c1ccccc1` (racemic) [Norfluoxetine, 3-(4-trifluoromethylphenoxy)-3-phenylpropylamine], the “serotonin / monoamine uptake blockade” value (serotonin uptake; background, known from earlier patents) is listed as “block monoamine uptake, especially serotonin”.
